Measurements taken from patent US20190343908A1, “Therapeutic Combination for the Treatment of Cancer” (Nerium Biotechnology Inc., priority 2011, published 2019).

Tests used:
[1] = system: MCF-7 (human breast cancer); assay: Sulforhodamine B viability assay, MCF-7; format: cell-based; design: key: absorbance (optical density) at 570 nm, second wavelength subtracted
Excerpt: (§1) Three different viability assays were chosen to complement each other and yielded results dependent on concentration and cell line: the Methyl Tetrazolium dye assay, the Sulforhodamine B fluorescent dye assay, and the Crystal Violet dye assay.
The Sulforhodamine B and Crystal Violet assays provide information about protein and were used to complement the Methyl-Tetrazolium dye assay. […] It is used for the quantification of cellular proteins of cultured cells. The assay using Crystal Violet, a dye that binds electrostatically to proteins and stains DNA, provides a reliable, simple assay for measuring viability of cells.
(§2) The Methyl Tetrazolium, Sulforhodamine B, and Crystal Violet assays were used to assess cell viabilities. The incubation times were 24 hours, 48 hours, and 72 hours. The Nerium oleander extract Anvirzel™ (a hot water extract of oleander obtained from Salud Integral, Honduras) was tested in concentrations ranging from 0.01 ng/mL to 10 ng/mL.
(§3) Cells were detached by trypsinization (Trypsin-0.25% EDTA, Invitrogen, 25200-072) during the logarithmic phase of culture growth and plated in 96-well plates (18.000 cells/well) (Corning, Costar 359) in a final volume of 200 μl of medium per well. […] The absorbance was measured after 24 hours, 48 hours, and 72 hours of incubation.
For the Sulforhodamine B assay, 96-well plates were fixed by 10% trichloroacetic acid (Fluka, 91228) and were incubated at 4° C. for 1 hour. Afterwards, plates were rinsed with water and cells were stained with 0.4% Sulforhodamine B (Sigma, 341738), dissolved in 1% acetic acid (Carlo Ebra, 401422) for 15 minutes at room temperature (RT). The unbound stain was washed twice with 1% acetic acid. Finally, 10 mM Tris Buffer pH 10.5 (Sigma, T6791) was added to dissolve the dye.
(§4) The optical density of each plate was measured on a μQuant spectrophotometer and the data were analyzed with Gen5 software (μQuant Biomolecular Spectrophotometer MQX200 and Gen5™ Microplate Data Collection & Analysis software, BioTek® Instruments. Inc, April 2008). Absorbance was measured at 570 nm for all assays and a second wavelength was measured in order to subtract noise. For the Methyl-Tetrazolium assay this second wavelength was 630 nm and for the Sulforhodamine B and Crystal Violet assays it was 690 nm.

[2] = system: HCT-15 (colorectal cancer); assay: Methyl-Tetrazolium viability assay, HCT-15; format: cell-based, human; design: key to MTT Average: absorbance (optical density) at 570 nm, second wavelength subtracted; settings: for MTT Average 24 h / MTT Average 48 h / MTT Average 72 h: HCT-15, Run 1
Excerpt: as §1
The Methyl-Tetrazolium dye assay measures the activity of enzymes in mitochondria. The dye precursor is taken up by cells, where it undergoes reduction to the purple formazan. It measures only the mitochondrial activity and, thus, it is not always a reliable indication of whether the cells themselves are alive or dead, since even a recently dead cell has […] enzyme activity in mitochondria. Intracellular glucose concentration, pH, and time before assay all affect the measurements.
as §2, §3
For the Methyl-Tetrazolium assay, the dye (Sigma, M2128; 5 mg/mL, diluted in phosphate-buffered saline) was added to each well and plates were incubated for 3 hours at 37° C. After the end of the incubation period, the medium was discarded and the cells were rinsed with phosphate-buffered saline. Finally, the formazan crystals were dissolved in dimethylsulphoxide (Sigma, D4540).
as §4

N.N.[Cl][Pt][Cl] [cisplatin]
SRB Average ([1]; MCF-7, Run 2, 24 h, 0.1 μg/ml CDDP): 1.754
SRB Average ([1]; MCF-7, Run 2, 24 h, 1 μg/ml CDDP): 1.225
SRB Average ([1]; MCF-7, Run 2, 24 h, 10 μg/ml CDDP): 1.717
SRB Average ([1]; MCF-7, Run 2, 24 h, 100 μg/ml CDDP): 1.056
SRB Average ([1]; MCF-7, Run 2, 48 h, 0.1 μg/ml CDDP): 2.037
SRB Average ([1]; MCF-7, Run 2, 48 h, 1 μg/ml CDDP): 0.874
SRB Average ([1]; MCF-7, Run 2, 48 h, 10 μg/ml CDDP): 0.88
SRB Average ([1]; MCF-7, Run 2, 48 h, 100 μg/ml CDDP): 0.985
SRB Average ([1]; MCF-7, Run 2, 72 h, 0.1 μg/ml CDDP): 2.289
SRB Average ([1]; MCF-7, Run 2, 72 h, 1 μg/ml CDDP): 1.409
SRB Average ([1]; MCF-7, Run 2, 72 h, 10 μg/ml CDDP): 1.179
SRB Average ([1]; MCF-7, Run 2, 72 h, 100 μg/ml CDDP): 0.897
SRB Average ([1]; MCF-7, Run 3, 24 h, 0.1 μg/ml CDDP): 2.843
SRB Average ([1]; MCF-7, Run 3, 24 h, 1 μg/ml CDDP): 1.805
SRB Average ([1]; MCF-7, Run 3, 24 h, 10 μg/ml CDDP): 2.092
SRB Average ([1]; MCF-7, Run 3, 24 h, 100 μg/ml CDDP): 1.077
SRB Average ([1]; MCF-7, Run 3, 48 h, 0.1 μg/ml CDDP): 2.371
SRB Average ([1]; MCF-7, Run 3, 48 h, 1 μg/ml CDDP): 1.787
SRB Average ([1]; MCF-7, Run 3, 48 h, 10 μg/ml CDDP): 1.338
SRB Average ([1]; MCF-7, Run 3, 48 h, 100 μg/ml CDDP): 1.673
SRB Average ([1]; MCF-7, Run 3, 72 h, 0.1 μg/ml CDDP): 2.522
SRB Average ([1]; MCF-7, Run 3, 72 h, 1 μg/ml CDDP): 1.885
SRB Average ([1]; MCF-7, Run 3, 72 h, 10 μg/ml CDDP): 1.622
SRB Average ([1]; MCF-7, Run 3, 72 h, 100 μg/ml CDDP): 1.181
SRB Average ([1]; MCF-7 Run 1, 24 h, 0.1 μg/ml CDDP): 2.066
SRB Average ([1]; MCF-7 Run 1, 24 h, 1 μg/ml CDDP): 1.404
SRB Average ([1]; MCF-7 Run 1, 24 h, 10 μg/ml CDDP): 1.825
SRB Average ([1]; MCF-7 Run 1, 24 h, 100 μg/ml CDDP): 1.579
SRB Average ([1]; MCF-7 Run 1, 48 h, 0.1 μg/ml CDDP): 2.67
SRB Average ([1]; MCF-7 Run 1, 48 h, 1 μg/ml CDDP): 1.873
SRB Average ([1]; MCF-7 Run 1, 48 h, 10 μg/ml CDDP): 1.731
SRB Average ([1]; MCF-7 Run 1, 48 h, 100 μg/ml CDDP): 1.452
SRB Average ([1]; MCF-7 Run 1, 72 h, 0.1 μg/ml CDDP): 2.779
SRB Average ([1]; MCF-7 Run 1, 72 h, 1 μg/ml CDDP): 1.762
SRB Average ([1]; MCF-7 Run 1, 72 h, 10 μg/ml CDDP): 1.702
SRB Average ([1]; MCF-7 Run 1, 72 h, 100 μg/ml CDDP): 1.024
MTT Average 24 h ([2]; 0.1 μg/ml CDDP): 0.218
MTT Average 48 h ([2]; 0.1 μg/ml CDDP): 0.324
MTT Average 72 h ([2]; 0.1 μg/ml CDDP): 0.464
MTT Average 24 h ([2]; 1 μg/ml CDDP): 0.032
MTT Average 48 h ([2]; 1 μg/ml CDDP): 0.032
MTT Average 72 h ([2]; 1 μg/ml CDDP): 0.025
MTT Average 24 h ([2]; 10 μg/ml CDDP): 0.1
MTT Average 48 h ([2]; 10 μg/ml CDDP): 0.046
MTT Average 72 h ([2]; 10 μg/ml CDDP): 0.03
MTT Average 24 h ([2]; 100 μg/ml CDDP): 0.034
MTT Average 48 h ([2]; 100 μg/ml CDDP): 0.023
MTT Average 72 h ([2]; 100 μg/ml CDDP): 0.017
MTT Average ([2]; Run 2, 24 h, 0.1 μg/ml CDDP): 0.141
MTT Average ([2]; Run 2, 24 h, 1 μg/ml CDDP): 0.03
MTT Average ([2]; Run 2, 24 h, 10 μg/ml CDDP): 0.094
MTT Average ([2]; Run 2, 24 h, 100 μg/ml CDDP): 0.025
MTT Average ([2]; Run 2, 48 h, 0.1 μg/ml CDDP): 0.233
MTT Average ([2]; Run 2, 48 h, 1 μg/ml CDDP): 0.031
MTT Average ([2]; Run 2, 48 h, 10 μg/ml CDDP): 0.067
MTT Average ([2]; Run 2, 48 h, 100 μg/ml CDDP): 0.014
MTT Average ([2]; Run 2, 72 h, 0.1 μg/ml CDDP): 0.214
MTT Average ([2]; Run 2, 72 h, 1 μg/ml CDDP): 0.016
MTT Average ([2]; Run 2, 72 h, 10 μg/ml CDDP): 0.041
MTT Average ([2]; Run 2, 72 h, 100 μg/ml CDDP): 0.01
MTT Average ([2]; Run 3, 24 h, 0.1 μg/ml CDDP): 0.294
MTT Average ([2]; Run 3, 24 h, 1 μg/ml CDDP): 0.028
MTT Average ([2]; Run 3, 24 h, 10 μg/ml CDDP): 0.137
MTT Average ([2]; Run 3, 24 h, 100 μg/ml CDDP): 0.039
MTT Average ([2]; Run 3, 48 h, 0.1 μg/ml CDDP): 0.391
MTT Average ([2]; Run 3, 48 h, 1 μg/ml CDDP): 0.035
MTT Average ([2]; Run 3, 48 h, 10 μg/ml CDDP): 0.104
MTT Average ([2]; Run 3, 48 h, 100 μg/ml CDDP): 0.026
MTT Average ([2]; Run 3, 72 h, 0.1 μg/ml CDDP): 0.457
MTT Average ([2]; Run 3, 72 h, 1 μg/ml CDDP): 0.039
MTT Average ([2]; Run 3, 72 h, 10 μg/ml CDDP): 0.043
MTT Average ([2]; Run 3, 72 h, 100 μg/ml CDDP): 0.017
